Measurements taken from patent US20220184037A1, “PHARMACEUTICAL AGENTS TARGETING CANCER STEM CELLS” (THE JOHNS HOPKINS UNIVERSITY, priority 2020, published 2022).

Assays:
SOX2 = assay: Western blotting / flow cytometry of SOX2 expression in bladder cancer cells; assay type: cell-based, human
Procedure: (§1) Whole cell lysates were extracted using RIPA buffer (Thermo Scientific) supplemented with 10 μL/mL Halt™ Protease Inhibitor Cocktail Kit (Life Technologies) and 30 μL/mL Halt™ Phosphatase Inhibitor Cocktail Kit (Life Technologies). The protein concentrations were determined using a Pierce™ BCA Protein Assay Kit (Life Technologies), and the protein were separated on. NuPAGE 4-12% Bis-Tris Gel (Life Technologies) according to the manufacturer's protocol. COX2 (D5H5), NANOG (D73G4), OCT4 (D7O5Z), CD133 (A3G6K), Snail (C15D3), ZEBI (D80D3), Vimentin (D21H3), CDH2 (D4R1H), CDH1 (24E10), p-EGFR (D7A5), EGFR (D38B1), p-AKT (D9E), AKT (cat #, 9272), p-ERK (D13.14.4E), ERK (137F5), p-YAP1 (D9W2I), p-Src (cat #, 2101), Src (36D10), DNMT1 (D63A6), DNMT3A (D23G1), and DNMT3B (D7070) antibodies were obtained from Cell Signaling Technology (Danvers, Mass., USA), except for SOX2 (EPR3131; Abeam, Cambridge, USA), YAP1 (ab52771; Abeam), CD24 (cat #, AF5247-SP; R&D Systems, Minneapolis USA) and β-actin (A2228; Sigma-Aldrich). Secondary horseradish peroxidase (HRP)-conjugated antibodies were obtained from Cell Signaling Technology, and chemiluminescent detection of HRP-labeled antibodies was performed using Amersham ECL Prime Western Blotting Detection Reagent (GE Healthcare, Piscataway, USA). As loading control, β-actin was used.
For extracellular staining, cells (1×10^6/100 μL stain buffer) were incubated with PE-Vio770-conjugated anti-human CD133 (293C3; Miltenyi Biotec, Auburn, USA) or PE-conjugated anti-human CD24 antibody (cat #, 560991; BD Biosciences) for 30 min at 4° C. in dark. PE-Vio770-conjugated anti-IgG1κ Isotype (cat #, 130-098-563; Miltenyi Biotec) and PE-conjugated IgG2a, κ Isotype (cat #, 555574; BD Biosciences) were used as control for CD133 and CD24 staining, respectively. Staining for intracellular SOX2 was carried out using the BD Cytofix/Cytopem Fixation/Permeabilization Kit (BD Biosciences) according to manufacturer's protocol. The cells were incubated with Alexa Fluor 647-conjugated anti-SOX2 antibody (cat #, 560302; BD Biosciences) for 40 min at 4° C. in dark. Alexa Fluor 647-conjugated anti-IgG2a, κ Isotype (cat #, 558053; BD Biosciences) was used as control. Data were acquired on a BD FACSCalibur flow cytometer (BD Biosciences) using BD CellQuest Pro software (BD Biosciences) and analyzed with FlowJo software v10.1 (Tree Star, Ashland, USA).

COX2 = assay: Western blotting of COX2 expression in bladder cancer cells; assay type: cell-based, human
Procedure: as §1

[1] = Body weight of treated mice; assay type: in vivo; details: mouse, in vivo
Procedure: For therapeutic efficacy, mice were randomly assigned into experimental groups (five mice per group) when tumors reached a volume of […]. For celecoxib and/or VP treatment, celecoxib (5 mg/kg) was administered via intraperitoneal (i.p.) injection once a day (17), and VP (50 mg/kg) was administered via i.p. every other day (18). EP4 antagonist ONO-AE3-208 (10 mg/kg) was administered via i.p. once a day (19). Control was applied with same volume (10 μL per injection) of 10% dimethyl sulphoxide in 1% TWEEN 80 (Sigma-Aldrich). For GEM and CDDP (GC) treatment (i.p.), CDDP (6 mg/kg) was only applied after the first GEM (60 mg/kg) treatment on day 2, followed by three consecutive treatments of GEM on day 5, 8 and 11 (17). The next cycle was started on day 18, and the treatment was continued until tumor reached 2 cm in diameter. For erlotinib treatment, the mice were treated once a day, 6 days per week, by oral gavage with erlotinib (100 mg/kg) or control (PBS containing 0.5% methyl cellulose (Sigma-Aldrich) and 0.1% TWEEN 80) (20). Tumor size was measured at least every three days. Therapeutic efficacy was assessed using percentage change after treatment related to tumor size before treatment. […]

[2] = system: bladder cancer cells (urothelial CSCs); assay: Sphere formation assay; assay type: cell-based, human; details: for sphere-forming ability / sphere formation: COX2 inhibitor or EP4 antagonist alone
Procedure: Sphere formation was induced by culturing cells (2×10^4/well) in […] F12 50/50 Mix (Mediatech) supplemented with B-27 (Life Technologies), 20 ng/mL FGF-basic (Peprotech), 20 ng/mL EGF (Peprotech). Cell culture was performed in ultra-low attachment 6 well plates (Corning, Lowell, USA) for 10 days. The medium was replaced every other day. Sphere formation was evaluated using the inverted phase-contrast microscope, and single sphere with a diameter larger than 100 gm was counted using NIS-Elements Microscope Imaging Software. To redifferentiate spheres, spheres were plated in standard growth medium with 10% FBS in dishes supporting cell attachment, and incubated for 7 days. For self-renewal assay, primary spheres were collected by gentle centrifugation (5 min at 400×g), dissociated with Stempro Accutase Cell Dissociation Reagent (Life Technologies), and mechanically disrupted with a pipette. The cell suspension was sieved through 40 μm cell strainer cap filter to achieve a single-cell suspension, and then equal numbers of alive cells were plated in ultralow attachment plates to generate the second spheres. Again, spheres were counted on day 14 and digested to generate the third Spheres. All the experiments were performed in triplicate and repeated at least three times.

YAP1 = assay: Western blotting of YAP1 expression in bladder cancer cells; assay type: cell-based, human
Procedure: as §1

let-7 = let-7 expression by Q-RT-PCR; assay type: cell-based, human; details: parental or spheroid bladder cancer cells
Procedure: (§2) Total RNA from cell lines was isolated using the RNeasy Plus Mini kit (Qiagen, Valencia, USA) according to the manufacturer's protocol. Total RNA extraction from bladder tissue was performed with the QIAzol Lysis Reagent (Qiagen) followed by phenol extraction and ethanol precipitation. Total RNA was eluted in DEPC treated water and stored at −80 ° C. Total RNA extraction from urine was performed using the MirVana miRNA Isolation Kit (Ambion, Austin, USA). These total RNA were converted to cDNA using the SuperScript III First-Strand Synthesis System (Life technologies, Carlsbad, USA), which was then used as a template for Q-RT-PCR. Q-RT-PCR was performed using the Fast SYBR Green Master Mix (Thermo Fisher Scientific, Waltham, USA) on a 7900HT Fast Real-Time PCR System (Life technologies) in triplicate. Micro RNA (miRNA) extraction was performed using the MirVana miRNA Isolation Kit, and was reverse transcribed using TaqMan reverse transcription kit (Applied Biosystems, Foster City, USA) and miRNA-specific RT primers provided with TaqMan microRNA assays (Applied Biosystems). Q-RT-PCR for miRNAs was performed using the TaqMan Universal PCR Master Mix according to the manufacturer's protocol. SDS software (Applied Biosystems) was used to determine cycle threshold (Ct) values. Expression level was quantified relative to β-actin for mRNA and RNU6B for miRNA using the 2-ΔΔCt method (12).
For demethylation, cells (1×10^6/T-75 flask) were treated with […] of the demethylating agent 5-Aza-dC (Sigma) dissolved in 50% acetic acid or were mock-treated with phosphate buffered saline (PBS) including the same amount of acetic acid every 24 hours for 5 days. When combined with the histone deacetylase inhibitor TSA (Sigma), 300 nmol/L TSA was added to the medium for the final 24 hours.

[3] = system: let-7 host gene MIRLET7BHG promoter; assay: Bisulfite sequencing of let-7 host gene promoter methylation; assay type: cell-based, human; details: 10 μM celecoxib, 2 μM PGE2, or 5 μM 5-Aza-dC for 5 days
Procedure: Cell pellets were digested with 1% sodium dodecyl sulfate and 50 μg/mL proteinase K (Roche, Nutley, USA) at 48° C. overnight. Isolation of genomic DNA from cell lines was performed with the phenol-chloroform extraction protocol followed by ethanol precipitation. Bisulfite treatment was conducted using an EpiTect Bisulfite K ft (QIAGEN, Valencia, USA), and was subsequently amplified via PCR using primers as shown in the following table. PCR products were purified using the QIAquick Gel Extraction kit (Qiagen), and sequenced by Genewiz DNA sequencing service (Genewiz, South Plainfield, USA). The data were analyzed using the Sequence Scanner v1.0 software (Life technologies). A methylation frequency of ≥50% of total CpG sites within the amplified region was considered “methylation-positive”. For demethylation, cells ([…]) dissolved in 50% acetic acid or were mock-treated with phosphate buffered saline (PBS) including the same amount of acetic acid every 24 hours for 5 days. When combined with the histone deacetylase inhibitor TSA (Sigma), 300 nmol/L TSA was added to the medium for the final 24 hours.

DNMT 1 and 3A = assay: Western blotting of DNMTs; assay type: cell-based, human; details: PGE2-treated cells
Procedure: as §1

[4] = system: panel of miRNAs in BFTC 905 cells; assay: Expression of a panel of miRNAs; assay type: cell-based, human; details: addition of PGE2 to COX2 inhibitor
Procedure: as §2

[5] = COX2 inhibitor or EP4 antagonist alone (FIG. 2A-B, S7)
[6] = addition of PGE2 to celecoxib treatment

C=Cc1c(C)c2cc3nc(cc4[nH]c(cc5nc(cc1[nH]2)C(C)=C5CCC(=O)O)c(CCC(=O)OC)c4C)[C@@]1(C)C3=CC=C(C(=O)OC)[C@H]1C(=O)OC [VP, 3-[(23S,24R)-14-ethenyl-5-(3-methoxy-3-oxopropyl)-22,23-bis(methoxycarbonyl)-4,10,15,24-tetramethyl-25,26,27,28-tetraazahexacyclo[16.6.1.1^3,6.1^8,11.1^13,16.0^19,24]octacosa-1,3,5,7,9,11(27),12,14,16,18(25),19,21-dodecaen-9-yl]propanoic acid]
expression of SOX2 and its related molecules (SOX2; VP alone): reduced expression | COX2 expression (COX2; VP alone): induced COX2 expression in a dose-dependent manner | body weight loss [1]: did not observe body weight loss

CC(C(=O)Nc1cc(C#N)ccc1CCCC(=O)O)c1ccc(F)c2ccccc12 (stereo not shown) [EP4-specific antagonist, ONO-AE3-208]
SOX2 expression (SOX2; [5]): dramatic reduction | sphere-forming ability / sphere formation [2]: dramatic reduction

EGF: Recombinant human epidermal growth factor
SOX2 expression (SOX2; EGF-stimulated EGFR signaling): increased | YAP1 expression (YAP1; EGF-stimulated EGFR signaling): increased

Nc1ncn([C@H]2C[C@H](O)[C@@H](CO)O2)c(=O)n1 [5-Aza-dC, 5-Aza-2′-deoxycytidine]
let-7 expression (let-7): restoration of let-7 expression | promoter methylation of the let-7 host gene [3]: demethylated

N.N.[Cl][Pt][Cl] [cisplatin, Cisplatin]
SOX2 expression (SOX2; CDDP chemotherapy alone): overexpression | COX2 expression (COX2; CDDP chemotherapy alone): overexpression | YAP1 expression (YAP1; CDDP chemotherapy alone): overexpression | sphere formation ([2]; CDDP chemotherapy alone): increased sphere formation

CCCCC[C@H](O)/C=C/[C@H]1[C@H](O)CC(=O)[C@@H]1C/C=C\CCCC(=O)O [PGE2, Prostaglandin E2]
celecoxib-repressed SOX2 expression (SOX2; [6]): restored | DNMT 1 and 3A expression (DNMT 1 and 3A): upregulated | celecoxib-repressed sphere-forming ability [2, 6]: restored | let-7 expression (let-7): reduced its expression | expression of several miRNAs [4]: reduced these expression | promoter methylation of the let-7 host gene [3]: Promoter methylation of the let-7 host gene was observed

CCc1cccc2c3c([nH]c12)C(CC)(CC(=O)O)OCC3 (stereo not shown) [etodolac, Etodolac]
SOX2 expression (SOX2; [5]): dramatic reduction | sphere-forming ability / sphere formation [2]: dramatic reduction

CC(C)(C)n1nc(-c2ccc(Cl)cc2)c2c(N)ncnc21 [Src inhibitor, PP2]
COX2 inhibitor-induced YAP1 expression (YAP1; treatment with the Src inhibitor (FIG. S8H)): downregulated
